# Reference: patent publication US20210147812A1, “Method of Preparing Cancer Spheroid and Method of Selecting Colorectal Cancer Patient” (Kyo Diagnostics K.K., priority 2017, published 2021)
# Like-named read-outs stand apart in the source and are kept apart here.
# What was measured:
# [1] = system: three luciferase-expressing CRC-TIC spheroid lines (HC21T, HC18T, HC25T); assay: Chemical library screening of 80 agonists or activators for growth-promoting effects; format: cell-based; conditions: Homo sapiens, read-out: stimulation of spheroid growth
# Description: For growth monitoring assays, luciferase-expressing spheroids were cultured in 2-3 wells of a 12-well cell-culture plate. […] The spheroid cells were resuspended in Matrigel, distributed to the wells of 96-well “white” cell-culture plates (Corning; 3 μl per well) on a plate heater at 37° C., and cultured overnight in 100 μl/well of the medium. Spheroids were rinsed with 100 μl/well of PBS, and incubated with 50 μl of 150 μg/ml luciferin in phenol red-free DMEM/F12 medium (Nacalai) for 10 min at room temperature […]. Luminescence was scored using a conventional imaging device (Gel Doc XR+, BioRad). After this initial measurement, spheroids in each well were rinsed with 100 μl of PBS, and cultured in 100 μl of the medium. Luminescence was determined daily or 3 days later. The cell growth rate for each well was estimated as the proportion of photon counts to those on day 1.
# [2] = system: spheroid lines HC6T, HC9T, and HC20T; assay: Drug sensitivity tests in spheroids (GEI); format: cell-based, human; conditions: dose-dependent, FIGS. 16A-16C
# Description: (§1) Luciferase-expressing spheroids were cultured in 2-3 wells of a 12-well cell-culture plate (in 60-90 μl Matrigel). […] From the spheroid solution thus obtained, 300 μl was taken and the cells were resuspended in an equal volume of Matrigel. The spheroid cells in Matrigel were distributed to the wells of 96-well “white” cell-culture plates (Corning; 3 μl per well) on a plate heater at 37° C., and cultured overnight in 100 μl/well of the medium. Spheroids were rinsed with 100 μl/well of PBS, and incubated with 50 μl of 150 μg/ml luciferin in phenol red-free DMEM/F12 medium (Nacalai) for 10 min at room temperature (20-28° C.). Luminescence was scored using a conventional imaging device (Gel Doc XR+, BioRad). After this initial measurement, spheroids in each well were rinsed with 100 μl of PBS, and cultured in 100 μl of the medium. Luminescence was determined on day 1 and day 3. Effects of a drug was determined by obtaining GEI (growth effect index), which is the growth rate of a group treated with the drug compared to a control group (a solvent-treated group). Results were shown using means in three independent experiments each conducted in triplicate.
# The spheroid lines shown in Table 3 were used in this example.
# [3] = system: two CRC-TIC spheroid lines (HC18T and HC21T); assay: Titration experiments, dose-dependent effects on growth (GEI); format: cell-based, human; conditions: for effect on spheroid growth in titration: at 10 μM
# Description: Shown are the plots and means of GEI in three independent experiments. Asterisks indicate significant differences from the solvent-only group (P<0.05; analyzed using one-way ANOVA followed by Tukey's post-test).
# Shown are the mean GEI±SEM (independent experiments, n=3). Asterisks indicate significant differences from the solvent-only (0 μM) group (P<0.05; analyzed using one-way ANOVA followed by Tukey's post-test).
# (§2) Luminescence was determined daily or 3 days later. The cell growth rate for each well was estimated as the proportion of photon counts to those on day 1. Four or six replicates (with similar statistical power) were analyzed for each data point in all experiments except for the chemical compound screening assays.
# HC6T-PDSX mice = assay: Drug sensitivity tests in PDSX models (tumor volume); format: in vivo, nude mice (BALB/c-nu); conditions: 21 days; erdafitinib 10 mg/kg orally, cetuximab 250 μg i.p. twice a week
# Description: Patient-derived spheroids were cultured in a 12-well culture plate to become confluent (4×10^5-4×10^6 cells/plate) and the spheroids were rinsed twice with PBS and placed in a 1.5 ml tube with Matrigel. The volume of the spheroid suspension was adjusted to 100 μl with PBS and the suspension thus obtained was subcutaneously injected into 4-6 week female nude mice (BALB/c-nu) at 1×10^5-9×10^5 cells/mouse.
# PDSX mice were subjected to drug-dosing test when the mean estimated tumor volume reached 300 mm^3. Tumor volume (mm^3) was estimated by the following formula: length×width^2/2. We excluded the following kinds of tumors from the tests as outliers; too small (<100 mm^3), spontaneously shrinking, remaining unchanged in size, or deeply implanted and difficult to be measured.
# The day of the dosing start was defined as day 0, with the tumor volume of each mouse measured twice a week for 3 weeks (days 0-21).
# The relative tumor volume was estimated by calibration to the initial tumor volume on day 0. To evaluate the drug dosing effects, the ratio of tumor volume on day 21 to that on day 0 was compared among the four groups.
# [4] = system: HC6T-PDSX and HC20T-PDSX tumors; assay: Histological examinations of PDSX tumors at day 21 (H&E, Ki67); format: in vivo, nude mice (BALB/c-nu); conditions: erdafitinib monotherapy group
# Description: Paraffin-embedded tissues of PDSXs were prepared according to the standard procedures. Sections were stained with H&E or immunostained for Ki67.
# [5] = system: normal colonic epithelial stem cell spheroids; assay: Drug sensitivity tests in spheroids (GEI); format: cell-based, human; conditions: concentrations below 1 μM
# Description: as §1
# [6] = system: CRC spheroids (HC18T, HC21T, and HC52T); assay: Morphology of spheroids after treatment with cAMP-signaling activators (phase-contrast micrographs); format: cell-based, human; conditions: 10 μM CV1808, 1 μM NECA, or 1 μM forskolin for five days
# HC21T spheroid line = assay: Titration experiment, growth promotion (GEI); format: cell-based, human
# Description: as §2
# [7] = system: CRC-TIC spheroid lines that carried wild-type RAS/RAF genes (HC6T, HC9T, HC11T, HC21T); assay: Stimulation of spheroid growth with EGF and/or bFGF, luminescence-based growth monitoring (GEI); format: cell-based, human; conditions: HC6T, HC9T
# Description: as §2
# To investigate whether EGF and bFGF helped spheroid proliferation in the cancer medium as described above, we cultured with EGF and/or bFGF four slow-growing CRC-TIC spheroid lines that carried wild-type RAS/RAF genes (HC6T, HC9T, HC11T, HC21T). Because EGF/bFGF facilitated the growths of these spheroid lines substantially (FIG. 3A), we then quantified their effects by the luminescence-based growth monitoring. To calibrate the effects, we introduced the growth effect index (GEI) defined as the relative growth rate of a treated group to that of its solvent-only control in each paired assay. […] The extents of growth promotion by EGF and bFGF were different depending on the spheroid line. […] In another spheroid line (HC21T), the effects were similar between the two growth factors (FIG. 3B).
# [8] = system: eleven CRC-TIC spheroid lines and four normal spheroid lines; assay: Dose-dependent effects of SB431542 on the growth of spheroid lines (GEI); format: cell-based, human
# Description: Luciferase-expressing cancer and normal spheroids were cultured in the cancer medium and the eL-WRN medium each containing EGF and bFGF, respectively, in the presence of SB431542 at the indicated concentrations. Tested were eleven CRC-TIC spheroid lines (circle) and four normal spheroid lines (square). Shown are the mean GEI of four replicates.
# as §2
compound,measurement,setting,value
"CCCCCCCCc1ccc(-c2ccc(C(=O)O)cc2)cc1 [AC55649, 4′-Octyl-[1,1′-biphenyl]-4-carboxylic acid]",activation at 10 µM,[1]; 10 μM each,> 25%
C=CC(=O)N[C@H]1CCOC[C@H]1Nc1ncc2cc(-c3c(Cl)c(OC)cc(OC)c3Cl)ccc2n1 [BLU554],growth of spheroid lines (GEI),[2],suppressed the growth
AZD4547,growth of spheroid lines (GEI),[2],suppressed the growth
"Nc1nc2c(ccc3ccccc32)s1 [SKA-31, Naphtho[1,2-d]thiazol-2-ylamine]",effect on spheroid growth in titration,[3],significant effects
same,activation at 10 µM,[1]; 10 μM each,> 25%
COc1cc(OC)cc(N(CCNC(C)C)c2ccc3ncc(-c4cnn(C)c4)nc3c2)c1 [erdafitinib],tumor volume versus control,HC6T-PDSX mice,reduced the tumor volume
same,growth of spheroid lines (GEI),[2],suppressed the growth
same,tumors that disappeared (complete response),[4],One of three
same,growth of normal spheroids,[5],hardly suppressed the growth
CCN1CCN(c2ccc(Nc3cc(N(C)C(=O)Nc4c(Cl)c(OC)cc(OC)c4Cl)ncn3)cc2)CC1 [BGJ398],growth of spheroid lines (GEI),[2],suppressed the growth
"Nc1nc(Nc2ccccc2)nc2c1ncn2[C@@H]1O[C@H](CO)[C@@H](O)[C@H]1O [CV1808, 2-phenylaminoadenosine]",growth-promoting effect compared with NECA,"[3]; dose-dependent, FIG. 9A",growth-promoting effect though weaker than that of NECA
same,morphological changes in spheroids,[6],cell flattening and increased sphere size
same,activation at 10 µM,[1]; 10 μM each,> 25%
"CCNC(=O)[C@H]1O[C@@H](n2cnc3c(N)ncnc32)[C@H](O)[C@@H]1O [NECA, 5′-(N-ethyl-carboxamido)-adenosine]",EC50,HC21T spheroid line,195 nM
same,morphological changes in spheroids,[6],cell flattening and increased sphere size
"CN[C@H](CC(=O)O)C(=O)O [NMDA, N-Methyl-D-aspartic acid]",activation at 10 µM,[1],> 25%
"bFGF: basic fibroblast growth factor, recombinant human protein","extent of growth promotion, bFGF versus EGF",[7],more effective than EGF
"NC(=O)c1ccc(-c2nc(-c3ccc4c(c3)OCO4)c(-c3ccccn3)[nH]2)cc1 [SB431542, 4-[4-(1,3-benzodioxol-5-yl)-5-(2-pyridinyl)-1H-imidazol-2-yl]benzamide]",effect on spheroid growth,[8]; at 10 μM,growth inhibition
same,effect on cancer versus normal spheroids,"[8]; indicated concentrations, FIG. 7A",effects on cancer spheroids were less than those on normal spheroids
"Cc1cc(SCc2sc(-c3ccc(C(F)(F)F)c(F)c3)nc2C)ccc1OCC(=O)O [GW0742, [4-[[[2-[3-fluoro-4-(trifluoromethyl)phenyl]-4-methyl-5-thiazolyl]methyl]thio]-2-methylphenoxy]-acetic acid]",effect on spheroid growth in titration,[3],significant effects
same,activation at 10 µM,[1],> 25%
"CCn1c(=O)[nH]c2cc(Cl)c(Cl)cc21 [DCEBIO, 5,6-Dichloro-1-ethyl-1,3-dihydro-2H-benzimidazol-2-one]",activation at 10 µM,[1]; 10 μM each,> 25%
"COC(=O)C(Cc1ccc(OCCn2c(=O)sc3cc(C(=O)c4ccccc4)ccc32)cc1)C(=O)OC [compound 526948, [[4-[2-(6-Benzoyl-2-oxo-3(2H)-benzothiazolyl)ethoxy]phenyl]methyl]-1,3-propanedioic acid dimethyl ester]",activation at 10 µM,[1]; 10 μM each,> 25%
COCc1c(-c2cc3cc(C)cc(OC)c3s2)c2c(N)ncnn2c1CN1CCNC(=O)C1 [rogoratinib],growth of spheroid lines (GEI),[2],suppressed the growth
"CC(C)(Sc1ccc(CCN(CCCCC2CCCCC2)C(=O)NC2CCCCC2)cc1)C(=O)O [GW7647, 2-methyl-2-[[4-[2-[[(cyclohexylamino)carbonyl](4-cyclohexylbutyl)amino]ethyl]phenyl]thio]-propanoic acid]",activation at 10 µM,[1]; 10 μM each,> 25%
"CCCc1c(OCCCOc2ccc(OCC(=O)O)cc2)ccc(C(C)=O)c1O [L-165,041, [4-[3-(4-Acetyl-3-hydroxy-2-propylphenoxy)propoxy]phenoxy]acetic acid]",activation at 10 µM,[1]; 10 μM each,> 25%
